Some test systems named below: UO-31 renal; PC-3 prostate; MDA-MB-435; BT-549 breast; TK-10 renal; SN12C renal; UACC-62 melanoma; 786-0 renal; NCI-H23 lung; HL-60(TB) leukemia.
Common to all, as to test: NCI tumour cell line growth inhibition, 48 h

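The compound was tested at five concentrations on cells cultured in 96-well plates, with a 48-hour exposure period. At the TGI there is no net growth.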

Our source for the TGI values is PubChem BioAssay (NCI).

Consider `CC(C)NC(=O)OCc1c(COC(=O)NC(C)C)n(C)c2c1ccc1sccc12`, for which the TGI in the assay on UO-31 renal is 68.7 µM; in the assay on PC-3 prostate it was 43.7 µM; with MDA-MB-435, 35.1 µM; in the assay on BT-549 breast, 10.7 µM; in the assay on TK-10 renal it was 75.6 µM; in the assay with SN12C renal, 76.2 µM. For the same compound, the TGI was 32.5 µM with UACC-62 melanoma, 36.8 µM in the assay on 786-0 renal, 29.3 µM in the assay on NCI-H23 lung and > 100 µM in the assay on HL-60(TB) leukemia.

`CCOC(=O)CSc1nc(N)c2c(-c3ccccc3)c3c(nc2n1)CCCC3`: the TGI in the assay with UO-31 renal, with PC-3 prostate, in the assay on MDA-MB-435, with BT-549 breast, with TK-10 renal and with SN12C renal was > 100 µM each time. Also, the TGI in the assay on UACC-62 melanoma, in the assay on 786-0 renal, in the assay with NCI-H23 lung and in the assay with HL-60(TB) leukemia was > 100 µM throughout.

Consider `NS(=O)(=O)c1nnc(NC(=O)N(c2ccccc2)c2ccccc2)s1`, for which the TGI was > 100 µM in the assay on UO-31 renal; > 100 µM in the assay on PC-3 prostate; 68.8 µM in the assay on MDA-MB-435; 42.2 µM in the assay on BT-549 breast; > 100 µM in the assay on TK-10 renal; 40.8 µM in the assay with SN12C renal. For the same compound, the TGI in the assay with UACC-62 melanoma was 59.1 µM; in the assay on 786-0 renal, > 100 µM; in the assay with NCI-H23 lung, 58.9 µM; in the assay on HL-60(TB) leukemia, 48.2 µM.

On to `O=C(CCc1cc(O)cc(O)c1)NCCc1cc(OCc2ccccc2)cc(OCc2ccccc2)c1`, for which the TGI in the assay with UO-31 renal amounted to 15.3 µM; in the assay with PC-3 prostate, 23.6 µM; with MDA-MB-435, 37.6 µM; with BT-549 breast it was 35.8 µM; with TK-10 renal, 46.2 µM; in the assay on SN12C renal it was 35.9 µM. The TGI is 40.2 µM in the assay on UACC-62 melanoma, 41 µM in the assay on 786-0 renal, 24.6 µM in the assay with NCI-H23 lung and 12.2 µM in the assay on HL-60(TB) leukemia.

On to `CCCCCCN(CCCCCC)C(=S)N/N=C(\C)c1ccccn1`, for which the TGI in the assay with UO-31 renal stood at 3.07 µM; in the assay on PC-3 prostate, 1.88 µM; with MDA-MB-435, 3.7 µM; with BT-549 breast, 3.8 µM; in the assay on TK-10 renal, 2.5 µM; in the assay with SN12C renal it was 2.56 µM. Also, the TGI is 3.5 µM in the assay with UACC-62 melanoma, 2.38 µM in the assay on 786-0 renal, 3.27 µM in the assay with NCI-H23 lung and 2.3 µM with HL-60(TB) leukemia.

Consider `Cc1ccccc1-c1nc2c(N)nc(N)nc2nc1N`, for which the TGI with UO-31 renal, with PC-3 prostate, in the assay with MDA-MB-435, with BT-549 breast, in the assay with TK-10 renal and with SN12C renal was > 100 µM throughout. Moreover, the TGI in the assay with UACC-62 melanoma, in the assay with 786-0 renal, with NCI-H23 lung and in the assay with HL-60(TB) leukemia was > 100 µM throughout.

For the compound `O=C(NCc1ccccc1)c1cc2ccccc2oc1=Nc1cccc(C(F)(F)F)c1`, the TGI was > 100 µM in the assay with UO-31 renal; > 100 µM in the assay on PC-3 prostate; > 100 µM with MDA-MB-435; > 100 µM with BT-549 breast; > 100 µM in the assay with TK-10 renal; 62.7 µM in the assay with SN12C renal. Also, the TGI in the assay on UACC-62 melanoma is > 100 µM; in the assay on 786-0 renal, > 100 µM; in the assay with NCI-H23 lung, > 100 µM; in the assay with HL-60(TB) leukemia it was 49.9 µM.

As for `COC1OC(C)C(NC(=O)OCC(Cl)(Cl)Cl)C2OC(C)(C)OC12` (stereo not given), the TGI in the assay with UO-31 renal, with PC-3 prostate, with MDA-MB-435, in the assay on BT-549 breast, with TK-10 renal and in the assay with SN12C renal was > 100 µM in each case. Further, the TGI in the assay on UACC-62 melanoma, with 786-0 renal, in the assay on NCI-H23 lung and in the assay on HL-60(TB) leukemia was > 100 µM in each case.

For `CC1=CC2C3(C)C(C)(C(C)=CP3(=O)c3c(C(C)C)cc(C(C)C)cc3C(C)C)C1P2(=O)c1c(C(C)C)cc(C(C)C)cc1C(C)C` (stereo not given), the TGI stood at 4.36 µM in the assay with UO-31 renal; 10.4 µM with PC-3 prostate; 5.33 µM in the assay on MDA-MB-435; 4.58 µM in the assay with BT-549 breast; 7.34 µM in the assay with TK-10 renal; 7.9 µM in the assay with SN12C renal. Also, the TGI in the assay with UACC-62 melanoma amounted to 2.92 µM; in the assay with 786-0 renal, 5.47 µM; in the assay on NCI-H23 lung, 4.09 µM; in the assay with HL-60(TB) leukemia, 3.85 µM.

As for `c1ccc2c(c1)SCCCS2`, the TGI in the assay with UO-31 renal, in the assay on PC-3 prostate, in the assay with MDA-MB-435, in the assay on BT-549 breast, with TK-10 renal and with SN12C renal was > 100 µM throughout. For the same compound, the TGI in the assay on UACC-62 melanoma, in the assay with 786-0 renal, with NCI-H23 lung and with HL-60(TB) leukemia was > 100 µM each time.

`CN1CSC(=S)N(c2cccc(C(F)(F)F)c2)C1`: the TGI was 45.3 µM in the assay on UO-31 renal; 69.1 µM in the assay on PC-3 prostate; 51.9 µM in the assay on MDA-MB-435; 44.2 µM with BT-549 breast; 72.3 µM with TK-10 renal; > 100 µM in the assay with SN12C renal. In addition, the TGI in the assay on UACC-62 melanoma was 31.7 µM; in the assay with 786-0 renal, 73.6 µM; with NCI-H23 lung, 33.2 µM; in the assay on HL-60(TB) leukemia, 59 µM.

For `CC(=O)O[C@@H](c1nccn1Cc1ccccc1)[C@H]1OC(C)(C)O[C@@H]1[C@H]1COC(C)(C)O1`, the TGI in the assay with UO-31 renal, with PC-3 prostate, in the assay on MDA-MB-435, in the assay with BT-549 breast, with TK-10 renal and with SN12C renal was > 100 µM each time. In addition, the TGI in the assay on UACC-62 melanoma, in the assay on 786-0 renal, in the assay on NCI-H23 lung and in the assay on HL-60(TB) leukemia was > 100 µM throughout.

Regarding `COc1ccc2ccc3oc(=O)c(C)cc3c2c1`, the TGI with UO-31 renal, in the assay with PC-3 prostate, in the assay on MDA-MB-435, in the assay on BT-549 breast, in the assay with TK-10 renal and with SN12C renal was > 100 µM in each case. In addition, the TGI with UACC-62 melanoma, in the assay on 786-0 renal, in the assay with NCI-H23 lung and in the assay on HL-60(TB) leukemia was > 100 µM in each case.

On to `O=c1ccc2ccc(S)cc2o1`, for which the TGI in the assay on UO-31 renal, in the assay with PC-3 prostate, in the assay on MDA-MB-435, with BT-549 breast, in the assay with TK-10 renal and with SN12C renal was > 100 µM each time. The TGI with UACC-62 melanoma, with 786-0 renal, in the assay with NCI-H23 lung and with HL-60(TB) leukemia was > 100 µM each time.

Take `O=C(COc1ccc(OCC(=O)N/N=C/c2ccc(-c3ccc(Cl)cc3Cl)o2)c(Cl)c1)N/N=C/c1ccc(-c2ccc(Cl)cc2Cl)o1`: the TGI in the assay on UO-31 renal, with PC-3 prostate, with MDA-MB-435, in the assay on BT-549 breast, in the assay with TK-10 renal and with SN12C renal was > 100 µM each time. In addition, the TGI in the assay with UACC-62 melanoma was > 100 µM; in the assay on 786-0 renal, > 100 µM; with NCI-H23 lung, > 100 µM; with HL-60(TB) leukemia, 70.6 µM.

As to `CC(C)C(Br)CCC1=CCC(Br)(Br)C1` (stereo not given), the TGI in the assay on UO-31 renal worked out at 21.9 µM; with PC-3 prostate, 28.5 µM; in the assay with MDA-MB-435, 22.5 µM; in the assay with BT-549 breast, 34.9 µM; in the assay with TK-10 renal it was 31.4 µM; with SN12C renal, 15.2 µM. Moreover, the TGI is 19.9 µM in the assay with UACC-62 melanoma, 29.6 µM in the assay on 786-0 renal, 21.5 µM with NCI-H23 lung and > 100 µM with HL-60(TB) leukemia.

Take `CC1(C)CC(=O)C2=C(C1)C(c1ccccc1Cl)C1C(=O)CC(C)(C)CC1(O)O2` (stereo not given): the TGI is > 100 µM with UO-31 renal; > 100 µM in the assay with PC-3 prostate; > 95.8 µM in the assay on MDA-MB-435; > 100 µM in the assay on BT-549 breast; > 100 µM in the assay on TK-10 renal; > 100 µM in the assay with SN12C renal. The TGI in the assay with UACC-62 melanoma was > 100 µM; in the assay with 786-0 renal it was > 100 µM; in the assay with NCI-H23 lung it was > 100 µM; in the assay with HL-60(TB) leukemia, > 43.7 µM.

For the compound `Cc1ccc(-c2cc(-c3ccco3)c(C#N)c(=S)[nH]2)cc1`, the TGI in the assay on UO-31 renal was > 100 µM; with PC-3 prostate it was > 100 µM; with MDA-MB-435, 65.1 µM; in the assay with BT-549 breast, > 100 µM; with TK-10 renal it was > 100 µM; in the assay with SN12C renal, > 100 µM. Further, the TGI was > 100 µM in the assay with UACC-62 melanoma, > 100 µM with 786-0 renal, 97.8 µM with NCI-H23 lung and > 100 µM in the assay with HL-60(TB) leukemia.

For `CN(C)CCN(c1ccccn1)c1ccccn1`, the TGI in the assay with UO-31 renal, with PC-3 prostate, in the assay with MDA-MB-435, with BT-549 breast, in the assay with TK-10 renal and in the assay with SN12C renal was > 100 µM each time. For the same compound, the TGI with UACC-62 melanoma, in the assay with 786-0 renal, in the assay on NCI-H23 lung and in the assay on HL-60(TB) leukemia was > 100 µM each time.

Regarding `Clc1cccc(-c2sc(-c3cccs3)cc2Cc2cccs2)c1`, the TGI in the assay with UO-31 renal, in the assay on PC-3 prostate, with MDA-MB-435, with BT-549 breast, in the assay on TK-10 renal and in the assay with SN12C renal was > 10 µM throughout. The TGI in the assay on UACC-62 melanoma, in the assay with 786-0 renal, with NCI-H23 lung and with HL-60(TB) leukemia was > 10 µM each time.
